Measurements as given in publication PMC9104013, “Role of Polyamine-Induced Dimerization of Antizyme in Its Cellular Functions” (International Journal of Molecular Sciences, 2022).

Key:
[1] = molecular target: T1, recombinant mOAZ1 protein (Mus musculus, UniProt P54369); test: Electrophoresis of mOAZ1-Polyamine complex (0.01% SDS in running buffer); assay type: binding; conditions: 200 μM polyamine, 30 min, 20 °C, pH 7.5
T1 construct: Full-length mOAZ1 protein was successfully produced in E. coli; made in house; host or cells: Escherichia coli Rosetta (DE3)
T1 sequence (P54369 whole entry): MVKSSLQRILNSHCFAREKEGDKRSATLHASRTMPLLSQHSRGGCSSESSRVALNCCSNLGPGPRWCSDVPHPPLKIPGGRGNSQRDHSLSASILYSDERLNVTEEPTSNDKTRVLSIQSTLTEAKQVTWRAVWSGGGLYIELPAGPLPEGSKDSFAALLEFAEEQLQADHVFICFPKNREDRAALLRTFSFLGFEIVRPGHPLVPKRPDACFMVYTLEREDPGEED
Procedure: The recombinant mOAZ1 protein (1 μg/band) was incubated with 200 μM of a polyamine at room temperature for 30 min. Then the sample was quenched with a loading buffer (200 mM Tris-HCl, pH 6.8, 0.01% bromophenol blue, and 40% glycerol) and applied onto 12% polyacrylamide gel lacking SDS. Electrophoresis was carried out in a running buffer with decreased SDS concentration (25 mM Tris base; 250 mM glycine; and 0.01% SDS) at 70 V. The gel was stained with Coomassie R-250.

DU145 cells = test: Intracellular polyamine and analogue concentrations in DU145 cells (HPLC); assay type: cell-based; conditions: 4 h, 100 µM analogue, 1 mM AG
Procedure: The DU145 cell line was obtained from American Type Culture Collection, Manassas, VA, USA. OAZ1-overexpressing DU145 cells were generated as described earlier. The cells were cultured in humidified atmosphere at +37 °C, 10% CO2 in high-glucose Dulbecco’s Modified Eagle’s Medium supplemented with 10% heat-inactivated fetal bovine serum, 2 mM L-glutamine, and 50 μg/mL gentamycin. The cells were lysed in a buffer containing 50 mM potassium phosphate, pH 7.2, 0.1 mM EDTA, 0.1% Triton X-100, 1 mM dithiothreitol (DTT), and Complete EDTA-free protease inhibitor (Roche Diagnostics, Basel, Switzerland). Aliquots of the lysate were taken for polyamine measurement, and the rest was centrifuged at 13,000 rpm for 20 min at +4 °C. The supernatant was used for enzyme assays and Western blotting.
Polyamines were measured with HPLC according to the published method. Acid-precipitated pellets were dissolved to 0.1 M NaOH, and the amount of DNA was measured using the PicoGreen reagent (Invitrogen) according to manufacturer’s instructions using dilutions of calf thymus DNA (Sigma-Aldrich) as standard curve. Protein concentrations were measured using Bio-Rad protein kit with dilutions of bovine serum albumin (Bio-Rad, Hercules, CA, USA) as standards. ODC activities were measured from the cytosolic fractions as described earlier. For immunoblotting of OAZ1, 20–50 μg of total protein was separated on a 15% SDS-polyacrylamide gel, transferred to a membrane (Immobilon FL, Millipore, Burlington, MA, USA), and immunoblotted with rabbit anti-OAZ1 antibody (a kind gift from Prof. Olli Jänne, University of Helsinki, Finland) and rabbit antiactin (Santa Cruz Biotechnology, cat no sc-1616, used at 1:1000 dilution in 5% nonfat dry milk/PBS-Tween). The secondary antibody used was goat antirabbit (Santa Cruz Biotechnology, Dallas, TX, USA, cat no sc-2004, used at 1:10,000 dilution).

[2] = test system: transgenic rats with activated polyamine catabolism; parameters: method as in PMID 12181316, PMID 19956991, PMID 20453551; conditions: cited from earlier work
[3] = test system: polyamine uptake in OAZ1-overexpressing DU145 cells; test: [14C]-Put and -Spd uptake in OAZ1-overexpressing DU145 cells; assay type: cell-based; conditions: DFMO 5 mM 3 days, DOX 1 μg/mL 2 days, analogue 100 μM 4 h with APCHA 50 μM, AG 1 mM; 20 min uptake
Procedure: OAZ1-overexpressing DU145 cells were plated onto 6-well plates and incubated overnight. The cells were first treated with DFMO (5 mM) for 3 days, after which DOX (1 μg/mL) was added for further 2 days to induce OAZ1 overexpression. Then, AG (1 mM), APCHA (50 μM), and Spd/analogue (100 μM) were added for 4 h. The plates were washed with warm DMEM and incubated for 20 min in [^14C]-Put or [^14C]-Spd labeling mix (10 μM Put/Spd, specific activity 25 mCi/mmol, in DMEM). The plates were washed twice with ice-cold PBS and lysed to 0.5 mL of 0.1 M NaOH. An aliquot was taken for measurement of ^14C radioactivity, and the counts were normalized to total protein in the sample.

OAZ1 protein = OAZ1 protein levels in DU145 cells (Western blotting); assay type: cell-based; conditions: 4 h, 100 μM, MG132 25 μM
Procedure: (§1) Figure 3 2-MeSpd is the weakest inducer of OAZ1 synthesis and the weakest downregulator of ODC in DU145 cells. (A) Uptake of Spd and its analogues in CHX-treated DU145 cells. After 2 h preincubation with CHX (100 µg/mL), the compounds (100 µM) were added, and incubation continued for 4 h before the analysis of the intracellular analogue concentration. (B) Uptake of Spd and its analogues in OAZ1-overexpressing DU145 cells. OAZ1 was induced by 24 h preincubation with DOX (250 ng/mL). The compounds (100 µM) were added for further 6 h before the analysis of intracellular analogue concentration. (C) Effect of Spd and the analogues on OAZ1 protein levels in DU145 cells. The cells were incubated for 4 h with 100 μM analogues in the presence of the proteasomal inhibitor, MG132 (25 μM). (D) Effect of Spd and the analogues on ODC activity in DU145 cells. […]
(§2) Polyamines were measured with HPLC according to the published method. Acid-precipitated pellets were dissolved to 0.1 M NaOH, and the amount of DNA was measured using the PicoGreen reagent (Invitrogen) according to manufacturer’s instructions using dilutions of calf thymus DNA (Sigma-Aldrich) as standard curve. Protein concentrations were measured using Bio-Rad protein kit with dilutions of bovine serum albumin (Bio-Rad, Hercules, CA, USA) as standards. ODC activities were measured from the cytosolic fractions as described earlier. […]

[4] = test system: OAZ1-overexpressing DU145 cells; test: Uptake of Spd and its analogues in OAZ1-overexpressing DU145 cells; assay type: cell-based; conditions: DOX 250 ng/mL 24 h, compounds 100 µM, 6 h
Procedure: as §1, §2

ODC = test: In vitro effect of Spd and its analogues on ODC activity in cytosolic extract; assay type: biochemical; conditions: 1 mM, ODC-enriched extract plus extract from OAZ1-overexpressing cells
Procedure: ODC-enriched lysate was prepared from subconfluent DU145 cells 6 h after medium change by lysing the cells in buffer containing 25 mM Tris-HCl, pH 7.4, 1 mM DTT, and 0.01% Tween-80. OAZ1-enriched lysate was prepared from OAZ1-overexpressing DU145 cells in the same buffer. The lysate was cleared by centrifugation, and the endogenous polyamines were removed by ultrafiltration through 3K-cutoff filter and washing twice with lysis buffer. In experiment 1, ODC-enriched cytoplasmic extract (~100 μg of total protein) was incubated for 30 min at +37 °C in the presence of 1 mM Spd or analogues before ODC activity assay. In experiment 2, ODC-enriched cytoplasmic extract (~100 μg of total protein) was incubated for 30 min at +37 °C with OAZ1-enriched cytoplasmic extract (~100 μg of total protein) in the presence of 1 mM Spd or analogues before ODC activity assay.

Structure (SMILES) | Formation of (mOAZ1)2-Polyamine complex / dimerization [1] | Intracellular Analogue (DU145 cells) [pmol/µg DNA] | Intracellular N1-AcSpd (DU145 cells) [pmol/µg DNA] | Intracellular Put (DU145 cells) [pmol/µg DNA] | Intracellular Spd (DU145 cells) [pmol/µg DNA] | Intracellular Spm (DU145 cells) [pmol/µg DNA] | Spd + MeSpd (DU145 cells) [pmol/µg DNA] | Spd + Spm + MeSpd (DU145 cells) [pmol/µg DNA] | Total polyamines (DU145 cells) [pmol/µg DNA] | Acute pancreatitis [2] | Liver regeneration [2] | Downregulation of [^14C]-Put uptake [3] | Downregulation of [^14C]-Spd uptake [3] | OAZ1 protein level induction (OAZ1 protein) | Uptake upon DOX-induced expression of OAZ1 [4] | Effect on the ability of OAZ1 to inhibit ODC activity in vitro (ODC)
CC(N)CCNCCCCN (stereo not shown) [1-MeSpd] | dimeric and monomeric complexes | 170 ± 9.7 | 7.1 ± 0.2 | 9.5 ± 0.5 | 62.0 ± 3.9 | 74.0 ± 7.2 | 232 | 306 | 323 | prevented acute pancreatitis | restored liver regeneration |  |  |  |  | 
CC(CN)CNCCCCN (stereo not shown) [2-MeSpd] | only the band corresponding to mOAZ1 itself was observed | 126 ± 14.5 | 4.9 ± 0.3 | 21.1 ± 0.7 | 70.2 ± 2.3 | 83.5 ± 6.8 | 196 | 279 | 306 |  |  | weakest downregulation | weakest downregulation | only marginally induced | reduced the uptake | 
CC(CCN)NCCCCN (stereo not shown) [3-MeSpd] | dimeric and monomeric complexes |  | 5.9 ± 1.1 | 11.1 ± 0.2 | 65.3 ± 3.9 | 78.4 ± 5.8 | 168 |  | 264 |  |  |  |  |  |  | 
NCCCCNCCCN [Spd, spermidine] | induce dimerization of OAZ1 |  |  |  |  |  |  |  |  |  |  |  |  | clear induction |  | did not affect the ability of OAZ1 to inhibit ODC activity
